Reference: paper PMC8015227, “Understanding the Metabolism of Proteolysis Targeting Chimeras (PROTACs): The Next Step toward Pharmaceutical Applications” (Journal of Medicinal Chemistry, 2020)
Read-outs that look alike come from different tables or passages of the source.

Experiment: Metabolic stability in cryopreserved human hepatocytes
Type: in vitro ADME
Settings: human, cryopreserved human hepatocytes (pooled, suspension)
[1] = Figures 3-5, cryopreserved human hepatocytes, read-out: half-life (t1/2)
[2] = Table S1, PROTACs, cryopreserved human hepatocytes, read-out: t1/2
[3] = supplement CSV, human hepatocytes, read-out: HLH t1/2

Procedure: Cryopreserved human hepatocytes (pooled suspension hepatocytes, Gibco) were thawed placing in a 37 °C shaking water bath according to the manufacturer’s specifications and resuspended in Williams E medium (WEM) to have 1 × 10^6 cells/mL. Samples with the test compound at 1 μM were incubated at 37 °C, and aliquots of 50 μL were collected at 0, 10, 30, 60, 120, and 240 min. The incubations were quenched 1:3 with ice-cold acetonitrile (containing 1 μM labetalol as the internal standard). Samples were then centrifuged at 12000 rpm for 5 min at 4 °C. The supernatant was concentrated by evaporation under a nitrogen stream and reconstituted with DMSO. Blank was prepared similarly but in the absence of the investigated compounds.
A Thermo Q-exactive mass spectrometer (Thermo Fisher Scientific, Waltham, MA) was used. The LC system, governed by Chromeleon X-press software, consists of a Binary pump, a thermostated autosampler, and a column compartment, all Dionex Ultimate 3000 series modules (Thermo Fisher Scientific, Waltham, MA). A volume of 2 μL was injected for each sample. Chromatographic separation of analytes was conducted in reverse-phase chromatography. In brief, a Luna Omega 1.6 μm Polar (C18, 2.1 mm × 150 mm) was used, and the mobile phases consisted of water (A) and acetonitrile (B), both containing formic acid at 0.1%. The LC flow was set at 0.400 mL/min in a 12 min gradient elution as follows: 99.5:0.5 (A/B) to 5:95 (A/B) over 10 min, 5:95 (A/B) for 2 min, and then reversion back to 99.5:0.5 (A/B) over 2.5 min. The column was operating at a constant temperature of 40 °C.

Row | half-life at 1 µM [1] | half-life at 1 µM [2] | half-life at 1 µM [3] | SMILES
1 | 0.303 h | 0.303 h | 0.303 h | Cc1sc2c(c1C)C(c1ccc(Cl)cc1)=N[C@@H](CC(=O)NCCCCCCCCNC(=O)COc1cccc3c1C(=O)N(C1CCC(=O)NC1=O)C3=O)c1nnc(C)n1-2 (stereo partly shown) [Compound 2, dBet6, reference compound]
2 |  | 0.462 h | 0.462 h | Cc1sc2c(c1C)C(c1ccc(Cl)cc1)=N[C@@H](CC(=O)Nc1ccc(OCCOCCOCCOCCNc3cccc4c3C(=O)N(C3CCC(=O)NC3=O)C4=O)cc1)c1nnc(C)n1-2 (stereo partly shown) [Compound 3, ARV-825, reference compound]
3 | 1.45 h | 1.45 h | 1.45 h | Cc1sc2c(c1C)C(c1ccc(Cl)cc1)=N[C@@H](CC(=O)NCCCN1CCN(CCCNc3cccc4c3C(=O)N(C3CCC(=O)NC3=O)C4=O)CC1)c1nnc(C)n1-2 (stereo partly drawn) [Compound 6, 2-((S)-4-(4-Chlorophenyl)-2,3,9-trimethyl-6H-thieno[3,2-f][1,2,4]triazolo[4,3-a][1,4]diazepin-6-yl)-N-(3-(4-(3-((2-(2,6-dioxopiperidin-3-yl)-1,3-dioxoisoindolin-4-yl)amino)propyl)piperazin-1-yl)propyl)acetamide]
4 |  | 3.5 h | 3.5 h | Cc1ncsc1-c1ccc(CNC(=O)[C@@H]2C[C@@H](O)CN2C(=O)[C@@H](NC(=O)COCCOCCOCCNC(=O)C[C@@H]2N=C(c3ccc(Cl)cc3)c3c(sc(C)c3C)-n3c(C)nnc32)C(C)(C)C)cc1 [Compound 7, MZ1, reference compound]
5 |  | 1.36 h | 1.36 h | Cc1ncsc1-c1ccc([C@H](C)NC(=O)[C@@H]2C[C@@H](O)CN2C(=O)[C@@H](NC(=O)CCCCCCNC(=O)C[C@@H]2N=C(c3ccc(Cl)cc3)c3c(sc(C)c3C)-n3c(C)nnc32)C(C)(C)C)cc1 [Compound 8, (2S,4R)-1-((S)-2-(7-(2-((S)-4-(4-Chlorophenyl)-2,3,9-trimethyl-6H-thieno[3,2-f][1,2,4]triazolo[4,3-a][1,4]diazepin-6-yl)acetamido)heptanamido)-3,3-dimethylbutanoyl)-4-hydroxy-N-((S)-1-(4-(4-methylthiazol-5-yl)phenyl)ethyl)pyrrolidine-2-carboxamide]
6 |  | 2.28 h | 2.28 h | Cc1ncsc1-c1ccc([C@H](C)NC(=O)[C@@H]2C[C@@H](O)CN2C(=O)[C@@H](NC(=O)COCCOCCNC(=O)C[C@@H]2N=C(c3ccc(Cl)cc3)c3c(sc(C)c3C)-n3c(C)nnc32)C(C)(C)C)cc1 [Compound 9, (2S,4R)-1-((S)-2-(tert-Butyl)-14-((S)-4-(4-chlorophenyl)-2,3,9-trimethyl-6H-thieno[3,2-f][1,2,4]triazolo[4,3-a][1,4]diazepin-6-yl)-4,13-dioxo-6,9-dioxa-3,12-diazatetradecanoyl)-4-hydroxy-N-((S)-1-(4-(4-methylthiazol-5-yl)phenyl)ethyl)pyrrolidine-2-carboxamide]
7 |  | 2.52 h | 2.52 h | Cc1ncsc1-c1ccc([C@H](C)NC(=O)[C@@H]2C[C@@H](O)CN2C(=O)[C@@H](NC(=O)COCCCOCCNC(=O)C[C@@H]2N=C(c3ccc(Cl)cc3)c3c(sc(C)c3C)-n3c(C)nnc32)C(C)(C)C)cc1 [Compound 10, ARV-771, reference compound]
8 |  | 0.69 h | 0.69 h | O=C(COc1cccc2c1C(=O)N(C1CCC(=O)NC1=O)C2=O)NCCCCCCCCNC(=O)c1ccc2c(c1)nc(Nc1cccc(Cl)c1)c1ccncc12 (stereo not shown) [Compound 12, 5-((3-Chlorophenyl)amino)-N-(8-(2-((2-(2,6-dioxopiperidin-3-yl)-1,3-dioxoisoindolin-4-yl)oxy)acetamido)octyl)benzo[c][2,6]naphthyridine-8-carboxamide]
9 |  | 0.56 h | 0.56 h | O=C(COc1cccc2c1C(=O)N(C1CCC(=O)NC1=O)C2=O)NCCCCCCCCCCNC(=O)c1ccc2c(c1)nc(Nc1cccc(Cl)c1)c1ccncc12 (stereo not shown) [Compound 13, 5-((3-Chlorophenyl)amino)-N-(10-(2-((2-(2,6-dioxopiperidin-3-yl)-1,3-dioxoisoindolin-4-yl)oxy)acetamido)decyl)benzo[c][2,6]naphthyridine-8-carboxamide]
10 |  | 1.28 h | 1.28 h | O=C(COc1cccc2c1C(=O)N(C1CCC(=O)NC1=O)C2=O)NCCOCCOCCOCCNC(=O)c1ccc2c(c1)nc(Nc1cccc(Cl)c1)c1ccncc12 (stereo not shown) [Compound 14, 5-((3-Chlorophenyl)amino)-N-(1-((2-(2,6-dioxopiperidin-3-yl)-1,3-dioxoisoindolin-4-yl)oxy)-2-oxo-6,9,12-trioxa-3-azatetradecan-14-yl)benzo[c][2,6]naphthyridine-8-carboxamide]
11 |  | 0.578 h | 0.578 h | O=C1CCC(N2C(=O)c3cccc(NCCCCCCNC(=O)c4ccc5c(c4)nc(Nc4cccc(Cl)c4)c4ccncc45)c3C2=O)C(=O)N1 (stereo not shown) [Compound 16, 5-((3-Chlorophenyl)amino)-N-(6-((2-(2,6-dioxopiperidin-3-yl)-1,3-dioxoisoindolin-4-yl)amino)hexyl)benzo[c][2,6]naphthyridine-8-carboxamide]
12 | 3.4 h | 3.4 h | 3.4 h | Cc1ncsc1-c1ccc([C@H](C)NC(=O)[C@@H]2C[C@@H](O)CN2C(=O)[C@@H](NC(=O)CCCCNC(=O)c2ccc3c(c2)nc(Nc2cccc(Cl)c2)c2ccncc23)C(C)(C)C)cc1 [Compound 17, 5-((3-Chlorophenyl)amino)-N-(5-(((S)-1-((2S,4R)-4-hydroxy-2-(((S)-1-(4-(4-methylthiazol-5-yl)phenyl)ethyl)carbamoyl)pyrrolidin-1-yl)-3,3-dimethyl-1-oxobutan-2-yl)amino)-5-oxopentyl)benzo[c][2,6]naphthyridine-8-carboxamide]
13 | 3.48 h | 3.48 h | 3.48 h | Cc1ncsc1-c1ccc([C@H](C)NC(=O)[C@@H]2C[C@@H](O)CN2C(=O)[C@@H](NC(=O)CCCCCCNC(=O)c2ccc3c(c2)nc(Nc2cccc(Cl)c2)c2ccncc23)C(C)(C)C)cc1 [Compound 18, 5-((3-Chlorophenyl)amino)-N-(7-(((S)-1-((2S,4R)-4-hydroxy-2-(((S)-1-(4-(4-methylthiazol-5-yl)phenyl)ethyl)carbamoyl)pyrrolidin-1-yl)-3,3-dimethyl-1-oxobutan-2-yl)amino)-7-oxoheptyl)benzo[c][2,6]naphthyridine-8-carboxamide]
14 |  | 2.65 h | 2.65 h | Cc1ncsc1-c1ccc([C@H](C)NC(=O)[C@@H]2C[C@@H](O)CN2C(=O)[C@@H](NC(=O)COCCCNC(=O)c2ccc3c(c2)nc(Nc2cccc(Cl)c2)c2ccncc23)C(C)(C)C)cc1 [Compound 19, 5-((3-Chlorophenyl)amino)-N-(3-(2-(((S)-1-((2S,4R)-4-hydroxy-2-(((S)-1-(4-(4-methylthiazol-5-yl)phenyl)ethyl)carbamoyl)pyrrolidin-1-yl)-3,3-dimethyl-1-oxobutan-2-yl)amino)-2-oxoethoxy)propyl)benzo[c][2,6]naphthyridine-8-carboxamide]
15 | 3.63 h | 3.63 h | 3.63 h | Cc1ncsc1-c1ccc([C@H](C)NC(=O)[C@@H]2C[C@@H](O)CN2C(=O)[C@@H](NC(=O)CN2CCN(C(=O)c3ccc4c(c3)nc(Nc3cccc(Cl)c3)c3ccncc34)CC2)C(C)(C)C)cc1 [Compound 20, (2S,4R)-1-((S)-2-(2-(4-(5-((3-Chlorophenyl)amino)benzo[c][2,6]naphthyridine-8-carbonyl)piperazin-1-yl)acetamido)-3,3-dimethylbutanoyl)-4-hydroxy-N-((S)-1-(4-(4-methylthiazol-5-yl)phenyl)ethyl)pyrrolidine-2-carboxamide]
16 |  | 0.262 h | 0.262 h | O=C1CCC(N2C(=O)c3cccc(NCCCCCCCCCCC(=O)N4CCN(C(=O)c5cc(Cc6n[nH]c(=O)c7ccccc67)ccc5F)CC4)c3C2=O)C(=O)N1 (stereo not shown) [Compound 21, 2-(2,6-Dioxopiperidin-3-yl)-4-((11-(4-(2-fluoro-5-((4-oxo-3,4-dihydrophthalazin-1-yl)methyl)benzoyl)piperazin-1-yl)-11-oxoundecyl)amino)isoindoline-1,3-dione]
17 |  | 1.58 h | 1.58 h | Cc1ncsc1-c1ccc([C@H](C)NC(=O)[C@@H]2C[C@@H](O)CN2C(=O)[C@@H](NC(=O)CCCCCCCCCCC(=O)N2CCN(C(=O)c3cc(Cc4n[nH]c(=O)c5ccccc45)ccc3F)CC2)C(C)(C)C)cc1 [Compound 22, (2S,4R)-1-((S)-2-(12-(4-(2-Fluoro-5-((4-oxo-3,4-dihydrophthalazin-1-yl)methyl)benzoyl)piperazin-1-yl)-12-oxododecanamido)-3,3-dimethylbutanoyl)-4-hydroxy-N-((S)-1-(4-(4-methylthiazol-5-yl)phenyl)ethyl)pyrrolidine-2-carboxamide]
18 |  | 1.52 h | 1.52 h | Cc1ncsc1-c1ccc([C@H](C)NC(=O)[C@@H]2C[C@@H](O)CN2C(=O)[C@@H](NC(=O)CCCCCCC(=O)N2CCN(C(=O)c3cc(Cc4n[nH]c(=O)c5ccccc45)ccc3F)CC2)C(C)(C)C)cc1 [Compound 23, (2S,4R)-1-((S)-2-(8-(4-(2-Fluoro-5-((4-oxo-3,4-dihydrophthalazin-1-yl)methyl)benzoyl)piperazin-1-yl)-8-oxooctanamido)-3,3-dimethylbutanoyl)-4-hydroxy-N-((S)-1-(4-(4-methylthiazol-5-yl)phenyl)ethyl)pyrrolidine-2-carboxamide]
19 |  | 1.11 h | 1.11 h | O=C(COc1cccc2c1C(=O)N(C1CCC(=O)NC1=O)C2=O)NCCOCCOCCOCCNC(=O)COc1c(-c2csc(N3CCOCC3)n2)ccc(F)c1F (stereo not shown) [Compound 28, 2-(2,3-Difluoro-6-(2-morpholinothiazol-4-yl)phenoxy)-N-(1-((2-(2,6-dioxopiperidin-3-yl)-1,3-dioxoisoindolin-4-yl)oxy)-2-oxo-6,9,12-trioxa-3-azatetradecan-14-yl)acetamide]
